These results are taken from patent US12084472B2 (Ardelyx, Inc., priority 2015, dated 2024).

The target of the test is T1, human TGR5 (Homo sapiens, UniProt Q8TDU6).
T1 construct: expressed in transfected cells; host or cells: HEK293
T1 sequence (Q8TDU6 1-330): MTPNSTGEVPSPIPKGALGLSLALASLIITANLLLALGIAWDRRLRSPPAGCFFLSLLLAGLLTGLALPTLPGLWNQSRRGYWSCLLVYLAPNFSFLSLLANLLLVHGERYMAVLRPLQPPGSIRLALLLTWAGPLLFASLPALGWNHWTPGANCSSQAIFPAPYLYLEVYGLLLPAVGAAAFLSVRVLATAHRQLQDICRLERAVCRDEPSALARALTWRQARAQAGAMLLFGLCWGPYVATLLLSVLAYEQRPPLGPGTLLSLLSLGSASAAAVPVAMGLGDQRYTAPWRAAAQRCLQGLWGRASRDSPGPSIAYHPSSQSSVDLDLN
The test can be described thus: Cell-based TGR5 assay (cAMP generation, HTRF). The note with it: HEK293 cells stably transfected with human TGR5; cAMP by HTRF; 30 minutes at 37° C.; read-out: pEC50 Human TGR5 (converted). As for the experimental part: A primary cell-based assay utilized HEK293 cells stably transfected with a gene encoding human TGR5. Cells were treated with candidate TGR5 activators and assessed for increased intercellular levels of cAMP.
TGR5-mediated cAMP generation was measured using a homogeneous time resolved fluorescence (HTRF) detection method (Cisbio). Test compounds were dissolved in DMSO to a final concentration of 10 mM. Serial 3-fold dilutions of the stock solution were made in DMSO, and these solutions were diluted 100-fold into Hanks Balanced Salt Solution supplemented with 10 mM HEPES pH 7.4, 0.003% Tween 20 and 0.5 mM isobutyl methylxanthine. Five microliters of diluted test compounds were added to wells of a black 384 well plate.
Cells grown overnight at 37° C./5% CO2 were harvested and resuspended in Hanks Balanced Salt Solution containing 10 mM HEPES to a concentration of […]. Five microliters (2500 cells) were dispensed into each well of the 384 well plate containing compound dilutions and incubated at 37° C. for 30 minutes. Each compound was tested in duplicate at 12 concentrations ranging from 0.05 nM to 10 μM.
Following incubation with test compounds, cAMP was detected through the successive addition of 5 μL each of cAMP labeled with the modified allophyocyanin dye d2 (cAMP-d2) and cryptate-labeled anti-cAMP in lysis buffer, and reading HTRF per the manufacturer's instructions.
A standard curve was used to convert the raw HTRF data into [cAMP]. The concentration of cAMP was plotted against log [test compound] and the resulting curves were fit to a 3-parameter logistical equation using GraphPad Prism to determine pEC50 (the negative log of the EC50) and the magnitude of the response.
Take `C[C@@H](CCCCN)c1ccc(Cl)c(CNC2(c3cnccc3-c3ccccc3OC3CC3)CC2)c1` (single isomer, unassigned) [Compound I-243]: the EC50 is 126 to 1000 nM.
Consider `CC(CCCCN)c1ccc(Cl)c(CNC2(c3cnccc3-c3ccccc3OC3CC3)CC2)c1` (single isomer, unassigned) [Compound I-244], for which the EC50 was 126 to 1000 nM.
Take `C[C@H](CCCCN)c1ccc(Cl)c(COC2(c3cnccc3-c3ccccc3OC3CC3)CC2)c1` (single isomer, unassigned) [Compound I-245]: the EC50 was 126 to 1000 nM.
On to `C[C@@H](CCCCN)c1ccc(Cl)c(COC2(c3cnccc3-c3ccccc3OC3CC3)CC2)c1` (single isomer, unassigned) [Compound I-246], for which the EC50 is 126 to 1000 nM.
Turning to `C[C@H](CCCC(=O)O)c1ccc(Cl)c(CNC2(c3cnccc3-c3ccccc3OC3CC3)CC2)c1` (single isomer, unassigned) [Compound I-247], the EC50 is less than 100 nM.
Turning to `CC(CCCC(=O)O)c1ccc(Cl)c(CNC2(c3cnccc3-c3ccccc3OC3CC3)CC2)c1` (single isomer, unassigned) [Compound I-248], the EC50 is less than 100 nM.
For the compound `C[C@@H](CCCN)c1ccc(Cl)c(CNC2(c3cnccc3-c3ccccc3OC3CC3)CC2)c1` (single isomer, unassigned) [Compound I-250], the EC50 is less than 100 nM.
Take `C[C@H](CCCN)c1ccc(Cl)c(CNC2(c3cnccc3-c3ccccc3OC3CC3)CC2)c1` (single isomer, unassigned) [Compound I-251]: the EC50 was less than 100 nM.
Take `Cc1ccc(C(C)CCCC(=O)O)cc1CNC1(c2cnccc2-c2ccccc2OC2CC2)CC1` (single isomer, unassigned) [Compound I-253]: the EC50 is less than 100 nM.
As for `C[C@@H](CCCCNC(=O)NC[C@H](O)[C@@H](O)[C@H](O)[C@H](O)CO)c1ccc(Cl)c(CNC2(c3cnccc3-c3ccccc3OC3CC3)CC2)c1` (single isomer, unassigned) [Compound I-255], the EC50 is less than 100 nM.
In the case of `C[C@H](CCCCNC(=O)NC[C@H](O)[C@@H](O)[C@H](O)[C@H](O)CO)c1ccc(Cl)c(CNC2(c3cnccc3-c3ccccc3OC3CC3)CC2)c1` (single isomer, unassigned) [Compound I-256], the EC50 is less than 100 nM.
Next, `C[C@H](CCCCNC(=O)N[C@@H](CO)[C@@H](O)[C@H](O)[C@H](O)CO)c1ccc(Cl)c(COC2(c3cnccc3-c3ccccc3OC3CC3)CC2)c1` (single isomer, unassigned) [Compound I-264]: less than 100 nM.
Turning to `C[C@H](CCCCNC(=O)NC[C@H](O)[C@@H](O)[C@H](O)[C@H](O)CO)c1ccc(Cl)c(COC2(c3cnccc3-c3ccccc3OC3CC3)CC2)c1` (single isomer, unassigned) [Compound I-273], the EC50 is less than 100 nM.
As to `C[C@@H](CCCCNC(=O)NC[C@H](O)[C@@H](O)[C@H](O)[C@H](O)CO)c1ccc(Cl)c(COC2(c3cnccc3-c3ccccc3OC3CC3)CC2)c1` (single isomer, unassigned) [Compound I-274], the EC50 was less than 100 nM.
On to `C[C@@H](CCCC(=O)NC[C@H](O)[C@@H](O)[C@H](O)[C@H](O)CO)c1ccc(Cl)c(CNC2(c3cnccc3-c3ccccc3OC3CC3)CC2)c1` (single isomer, unassigned) [Compound I-314], for which the EC50 was less than 100 nM.
Take `C[C@H](CCCC(=O)NC[C@H](O)[C@@H](O)[C@H](O)[C@H](O)CO)c1ccc(Cl)c(CNC2(c3cnccc3-c3ccccc3OC3CC3)CC2)c1` (single isomer, unassigned) [Compound I-315]: the EC50 was less than 100 nM.
In the case of `C[C@@H](CCCC(=O)N(C)C[C@H](O)[C@@H](O)[C@H](O)[C@H](O)CO)c1ccc(Cl)c(CNC2(c3cnccc3-c3ccccc3OC3CC3)CC2)c1` (single isomer, unassigned) [Compound I-325], the EC50 was less than 100 nM.
On to `C[C@H](CCCC(=O)N(C)C[C@H](O)[C@@H](O)[C@H](O)[C@H](O)CO)c1ccc(Cl)c(CNC2(c3cnccc3-c3ccccc3OC3CC3)CC2)c1` (single isomer, unassigned) [Compound I-326], for which the EC50 is less than 100 nM.
